Results as given in US20110092423A1, “INHIBITORS OF Akt ACTIVITY” (GlaxoSmithKline, LLC, priority 2008, published 2011).

Target: T1, full length AKT1 (Homo sapiens, UniProt P31749)
T1 construct: Full-length human AKT1 gene was amplified by PCR; His tag (from vector pFastbacHTb; purified on Nickel Sepharose) (N); made in house; host or cells: baculovirus; Sf9 / T. ni insect cells
Assay: Full-length AKT enzyme assay (substrate phosphorylation, SPA)
Format: biochemical
Conditions: in at least one experimental run; pIC50 = -log(IC50), IC50 in molar units; 4 uM ATP, 10 nM enzyme; read-out: pIC50 value against full length AKT1 (converted)
From the text: Cloning of Full-Length Human (FL) AKT1:
Full-length human AKT1 gene was amplified by PCR from a plasmid containing myristylated-AKT1-ER (gift from Robert T. Abraham, Duke University under MTA, described in Klippel et al. in Molecular and Cellular Biology 1998 Volume 18 p. 5699) using the 5′ primer: SEQ. ID NO: 2 5′ […] 3′ and the 3′ primer: SEQ. ID NO: 3 […] 3′. The 5′ primer included a BamHI site and the 3′ primer included an XhoI site for cloning purposes. The resultant PCR product was subcloned in pcDNA3 as a BamHI/XhoI fragment. […]
Compounds of the present invention were tested for AKT 1, 2, and 3 protein serine kinase inhibitory activity in substrate phosphorylation assays. […] Substrate phosphorylation was detected by the following procedure.
Assays were performed in 384 well U-bottom white plates. […] The reaction was stopped by the addition of 50 ul SPA bead mix (Dulbecco's PBS without Mg^2+ and Ca^2+, 0.1% Triton X-100, 5 mM EDTA, 50 uM ATP, 2.5 mg/ml Streptavidin-coated SPA beads.) The plate was sealed, the beads were allowed to settle overnight, and then the plate was counted in a Packard Topcount Microplate Scintillation Counter (Packard Instrument Co., Meriden, Conn.). […]

T1 sequence (P31749 whole entry): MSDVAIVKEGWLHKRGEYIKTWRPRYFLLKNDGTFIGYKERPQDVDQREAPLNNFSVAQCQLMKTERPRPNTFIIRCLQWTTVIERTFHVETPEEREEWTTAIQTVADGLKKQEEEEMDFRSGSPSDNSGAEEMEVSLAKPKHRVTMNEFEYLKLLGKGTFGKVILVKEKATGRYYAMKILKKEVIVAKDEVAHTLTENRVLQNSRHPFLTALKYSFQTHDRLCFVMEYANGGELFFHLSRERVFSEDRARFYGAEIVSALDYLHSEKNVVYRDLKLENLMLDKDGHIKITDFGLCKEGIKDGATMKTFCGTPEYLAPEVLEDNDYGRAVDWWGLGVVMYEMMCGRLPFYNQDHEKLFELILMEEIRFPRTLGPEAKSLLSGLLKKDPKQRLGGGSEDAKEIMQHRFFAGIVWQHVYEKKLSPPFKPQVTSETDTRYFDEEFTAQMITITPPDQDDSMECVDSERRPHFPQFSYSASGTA

- IC50: 10 nM
SMILES: Cn1ncc(Cl)c1-c1ncc(C(=O)N[C@H](CN)Cc2cccc(F)c2)s1 [Example 2, N-{(1S)-2-amino-1-[(3-fluorophenyl)methyl]ethyl}-2-(4-chloro-1-methyl-1H-pyrazol-5-yl)-1,3-thiazole-5-carboxamide]
